# Like-named read-outs stand apart in the source and are kept apart here.
# Key:
# [1] = biological target: T1, 5-HT2C (Homo sapiens, UniProt P28335); assay: 5-HT2C pharmacological screening by FLIPR assay in agonist mode; assay type: cell-based
# T1 construct: expressed in transfected cells; the paragraph before it names a CHO-K1-mt aequorin Gα16 cell line
# T1 sequence (P28335 33-458): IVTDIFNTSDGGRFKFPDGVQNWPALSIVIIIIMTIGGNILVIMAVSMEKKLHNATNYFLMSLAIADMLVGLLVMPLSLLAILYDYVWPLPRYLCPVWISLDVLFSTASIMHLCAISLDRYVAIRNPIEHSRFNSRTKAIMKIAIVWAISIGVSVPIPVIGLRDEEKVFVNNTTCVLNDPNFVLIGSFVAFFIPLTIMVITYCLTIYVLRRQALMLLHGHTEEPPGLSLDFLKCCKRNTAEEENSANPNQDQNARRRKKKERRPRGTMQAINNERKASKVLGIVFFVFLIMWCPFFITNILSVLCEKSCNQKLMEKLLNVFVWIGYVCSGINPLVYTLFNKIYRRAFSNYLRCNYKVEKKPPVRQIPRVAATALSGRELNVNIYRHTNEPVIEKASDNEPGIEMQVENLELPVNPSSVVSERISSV
# [2] = biological target: T2, 5-HT2A (Homo sapiens, UniProt P28223); assay: cell-based; details: FLIPR calcium assay, agonist mode
# T2 construct: expressed in transfected cells; the paragraph before it names a CHO-K1-mt aequorin Gα16 cell line
# [3] = biological target: T3, 5-HT2B (Homo sapiens, UniProt P41595); assay: cell-based; details: FLIPR calcium assay, agonist mode
# T3 construct: expressed in transfected cells; the paragraph before it names a CHO-K1-mt aequorin Gα16 cell line
# [4] = FLIPR calcium assay, agonist mode, approximate values, read-out: 5-HT2C, (EC50, % max activity)
# [5] = FLIPR calcium assay, agonist mode, class symbols, read-out: 5-HT2C (EC50, % max activity)
# [6] = 5-HT2A (EC50, % max activity), class symbols
# [7] = 5-HT2A, (EC50, % max activity), approximate values
# [8] = 5-HT2B (EC50, % max activity), class symbols
# [9] = 5-HT2B, (EC50, % max activity), approximate values
# [10] = class symbols, read-out: 5-HT2A (EC50, % max activity)
# [11] = class symbols, read-out: 5-HT2B (EC50, % max activity)
# T2 sequence (P28223 whole entry): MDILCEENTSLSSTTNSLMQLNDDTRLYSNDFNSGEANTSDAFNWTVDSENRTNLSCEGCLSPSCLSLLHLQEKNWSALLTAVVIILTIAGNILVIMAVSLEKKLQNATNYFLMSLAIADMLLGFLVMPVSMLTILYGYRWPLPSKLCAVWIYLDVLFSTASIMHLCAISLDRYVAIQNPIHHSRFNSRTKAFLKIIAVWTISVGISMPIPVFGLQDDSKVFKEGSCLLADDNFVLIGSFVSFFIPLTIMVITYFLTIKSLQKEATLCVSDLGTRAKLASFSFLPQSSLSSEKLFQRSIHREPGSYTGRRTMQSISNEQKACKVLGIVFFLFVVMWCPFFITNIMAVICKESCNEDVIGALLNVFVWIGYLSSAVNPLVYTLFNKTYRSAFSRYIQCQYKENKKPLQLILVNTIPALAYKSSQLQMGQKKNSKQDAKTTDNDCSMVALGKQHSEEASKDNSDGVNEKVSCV
# T3 sequence (P41595 whole entry): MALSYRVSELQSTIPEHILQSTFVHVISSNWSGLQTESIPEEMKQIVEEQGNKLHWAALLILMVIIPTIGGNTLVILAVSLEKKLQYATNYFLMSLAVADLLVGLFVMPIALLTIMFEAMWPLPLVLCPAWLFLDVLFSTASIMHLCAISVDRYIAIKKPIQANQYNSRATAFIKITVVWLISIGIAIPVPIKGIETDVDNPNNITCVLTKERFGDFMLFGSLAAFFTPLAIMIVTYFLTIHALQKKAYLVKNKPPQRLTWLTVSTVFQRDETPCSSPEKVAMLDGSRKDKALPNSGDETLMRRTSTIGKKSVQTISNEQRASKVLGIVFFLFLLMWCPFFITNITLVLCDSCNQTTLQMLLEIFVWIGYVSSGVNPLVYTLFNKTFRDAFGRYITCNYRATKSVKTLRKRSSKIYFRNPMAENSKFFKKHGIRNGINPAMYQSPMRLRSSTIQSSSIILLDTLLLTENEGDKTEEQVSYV
compound,measurement,setting,value
"c1nc2c(nc1N1CCCOCC1)CCNCC2 [Example 1, 4-(6,7,8,9-tetrahydro-5H-pyrazino[2,3-d]azepin-2-yl)-1,4-oxazepane]",EC50,[1]; [4],~0.1 µM
same,EC50,[1]; [5],< 0.2 µM
same,EC50,[2]; [6],1 to 6 µM
same,EC50,[2]; [7],~2 µM
same,EC50,[3]; [8],> 6 µM
same,EC50,[3]; [9],> 30 µM
"FC1(F)CCN(c2cnc3c(n2)CCNCC3)CC1 [Example 2, 2-(4,4-difluoropiperidin-1-yl)-6,7,8,9-tetrahydro-5H-pyrazino[2,3-d]azepine]",EC50,[1]; [4],~0.2 µM
same,EC50,[1]; [5],< 0.2 µM
same,EC50,[2]; [6],0.2 to 1 µM
same,EC50,[2]; [7],~0.9 µM
same,EC50,[3]; [8],1 to 6 µM
same,EC50,[3]; [9],~4 µM
"FC1CCN(c2cnc3c(n2)CCNCC3)CC1 [Example 4, 2-(4-fluoropiperidin-1-yl)-6,7,8,9-tetrahydro-5H-pyrazino[2,3-d]azepine]",EC50,[2]; [10],1 to 6 µM
same,EC50,[3]; [11],0.2 to 1 µM
"CN(C)c1cnc2c(n1)CCNCC2 [Example 15, N,N-dimethyl-6,7,8,9-tetrahydro-5H-pyrazino[2,3-d]azepin-2-amine]",EC50,[2]; [10],> 6 µM
same,EC50,[3]; [11],0.2 to 1 µM
"c1nc2c(nc1N1CCCC1)CCNCC2 [Example 16, 2-(pyrrolidin-1-yl)-6,7,8,9-tetrahydrahydro-5H-pyrazino[2,3-d]azepine]",EC50,[2]; [10],> 6 µM
same,EC50,[3]; [11],0.2 to 1 µM
"FC1CN(c2cnc3c(n2)CCNCC3)C1 [Example 17, 2-(3-fluoroazetidin-1-yl)-6,7,8,9-tetrahydro-5H-pyrazino[2,3-d]azepine]",EC50,[2]; [10],> 6 µM
same,EC50,[3]; [11],> 6 µM
"c1ccc(COc2cnc3c(n2)CCNCC3)cc1 [Example 18, 2-(benzyloxy)-6,7,8,9-tetrahydro-5H-pyrazino[2,3-d]azepine]",EC50,[2]; [6],> 6 µM
same,EC50,[3]; [8],< 0.2 µM
"Nc1cnc2c(n1)CCNCC2 [Example 19, 6,7,8,9-tetrahydro-5H-pyrazino[2,3-d]azepin-2-amine]",EC50,[2]; [10],> 6 µM
same,EC50,[3]; [11],> 6 µM
"Clc1cnc2c(n1)CCNCC2 [Example 20, 2-chloro-6,7,8,9-tetrahydro-5H-pyrazino[2,3-d]azepine]",EC50,[2]; [6],> 6 µM
same,EC50,[3]; [8],> 6 µM
"CN1CCc2[nH]c3ncccc3c2CC1 [Example 22, 7-methyl-5,6,7,8,9,10-hexahydropyrido[3′,2′:4,5]pyrrolo[2,3-d]azepine]",EC50,"[1]; 5-HT2C (EC50, % max activity, FLIPR calcium assay, agonist mode), class symbols",> 6 µM
same,EC50,[2]; [6],> 6 µM
same,EC50,[3]; [8],> 6 µM

# From patent publication US20240182480A1, “5-HT2A AND/OR 5-HT2C RECEPTOR AGONISTS” (priority 2021, published 2024)
